Assay results as given in publication PMC13114161 (Antibiotics, 2026).
Like-named read-outs stand apart in the source and are kept apart here.

Assays:
P. aeruginosa ATCC 27853 [1] = experiment: MIC and levofloxacin potentiation (broth microdilution); assay type: cell-based, Pseudomonas aeruginosa; settings: for MIC: Pseudomonas aeruginosa, ATCC27853
Method: Once synthesized, the three fluorinated EPI analogs (TXA11114, TXA11164 and TXA12027) were first assayed for their antibacterial activities against P. aeruginosa ATCC 27853. They had MICs of 100, >200 and 100 µg/mL, respectively (Table 1). […] Particularly, the inactivity of TXA11164 was surprising as the pKa values of both the amines are similar to that in TXA11114.
(§1) MIC assays for potentiation of antimicrobial activity against P. aeruginosa were performed as described previously.

[2] = tested on: multidrug-resistant P. aeruginosa clinical isolates from the CDC-FDA; experiment: Levofloxacin MIC potentiation, CDC-FDA isolates; assay type: cell-based, Pseudomonas aeruginosa; settings: for Levofloxacin MIC fold difference, +EPI / Levofloxacin MIC, +EPI: EPI […] (TXA11114, TXA09155) or 50 μg/mL (MC-04,124, PAβN); for MIC: Pseudomonas aeruginosa
Method: In a comparative study, the levofloxacin-potentiating activity of TXA11114 was evaluated alongside the well-characterized EPIs PAβN and MC-04,124 using P. aeruginosa clinical isolates obtained from the CDC and FDA Antimicrobial Resistance Isolate Bank and the Walter Reed Army Institute of Research (WRAIR). […] While PAβN has been widely studied in laboratory strains, its activity against the CDC/FDA P. aeruginosa panel has been reported only sparingly, limiting direct cross-study comparisons.
as §1

in vivo = settings: female, CD-1, mouse, iv
Method: Thus, the safety and tolerability of TXA11114 was determined to find an optimum dosing capability. The maximum tolerated dose (MTD) of TXA11114 was assessed in female mice (CD-1, 6–8 weeks old) at the University of North Texas Health Science Center (UNTHSC). TXA11114 was administered IV to groups of three female mice. Mice were administered TXA11114 in the range 30–240 mg/kg (IV bolus). […] As doses are tolerated (not resulting in effects such as mortality, convulsions, or other severe morbidity), they are increased. Survival and general observations as to the tolerability of the administered dose started immediately and continued for a period of 48 h after each dose was recorded.

P. aeruginosa ATCC 27853 [3] = experiment: Neutropenic murine thigh infection model; assay type: in vivo, CD-1 mice; settings: for Mean Log10 CFU (thigh): +24 hr
Method: Female CD-1 mice (6–8 weeks old; 22 ± 2 g) were obtained from Envigo Laboratories, quarantined for at least 3 days, and housed 5 per cage in accordance with the approved IACUC protocol (IACUC-2017-0049). Neutropenia was induced by intraperitoneal (IP) administration of cyclophosphamide (Cytoxan) at 150 mg/kg on day 4 and 100 mg/kg on day 1 prior to infection.
Mice were infected intramuscularly (IM) in the right thigh with 0.1 mL of bacterial suspension containing approximately 1 × 10^5–10^6 CFU/mL. […] At 2 h or 24 h post-infection, mice were euthanized by CO2 asphyxiation, and thighs were aseptically excised and placed in 2 mL sterile phosphate-buffered saline (PBS) on ice. Tissue homogenization was performed using a Polytron PT10-35 (12 mm aggregate, Kinematica, Malters, Switzerland).
Plates were incubated overnight at 37 °C, and colonies were enumerated the following day.

[4] = tested on: multidrug-resistant P. aeruginosa clinical isolates from Walter Reed Army Hospital; experiment: Levofloxacin MIC potentiation, WRAIR MRSN isolates; assay type: cell-based, Pseudomonas aeruginosa; settings: Pseudomonas aeruginosa
Method: as §1

[5] = tested on: P. aeruginosa DA7232 (gyrA-T83I, parC-S80L); experiment: Levofloxacin MIC potentiation; assay type: cell-based, Pseudomonas aeruginosa; settings: Pseudomonas aeruginosa, read-out: Levofloxacin MIC
Method: as §1

[6] = tested on: P. aeruginosa ATCC 27853 ompH mutants EPIR32, EPIR36, EPIR38; experiment: microbe, parasite or virus in culture; assay type: cell-based, Pseudomonas aeruginosa; settings: Pseudomonas aeruginosa
Method: as §1

[7] = tested on: P. aeruginosa CDC AR-0232, AR-0248, AR-0249; assay type: cell-based, Pseudomonas aeruginosa
Method: Frequency-of-resistance studies were carried out as described previously.

[8] = levofloxacin 10 mg/kg SC QID, alone or with TXA11114 30 mg/kg IV QID

## NC[C@@H]1CN[C@H](CNC(=O)c2cc3ccc(-c4ccc(F)cc4)cc3[nH]2)C1 [TXA09155]
P. aeruginosa ATCC 27853 [1]; EPI at […], ATCC 27853
  Fold MIC reduction [LVX/EPI-LVX]: 16 fold
P. aeruginosa ATCC 27853 [1]; EPI alone, ATCC 27853, read-out: EPI MIC
  MIC: 50 µg/mL
P. aeruginosa ATCC 27853 [1]; levofloxacin MIC with EPI at […], ATCC 27853
  LVX MIC (+EPI): 0.063 µg/mL
[2]; AR-0229
  Levofloxacin MIC fold difference, +EPI: 32 fold
  Levofloxacin MIC, +EPI: 2 µg/mL
[2]; AR-0232
  Levofloxacin MIC fold difference, +EPI: 16 fold
  Levofloxacin MIC, +EPI: 0.5 µg/mL
[2]; AR-0233
  Levofloxacin MIC fold difference, +EPI: 32 fold
  Levofloxacin MIC, +EPI: 0.125 µg/mL
[2]; AR-0234
  Levofloxacin MIC fold difference, +EPI: 16 fold
  Levofloxacin MIC, +EPI: 0.5 µg/mL
[2]; AR-0239
  Levofloxacin MIC fold difference, +EPI: 16 fold
  Levofloxacin MIC, +EPI: 4 µg/mL
[2]; AR-0242
  Levofloxacin MIC, +EPI: 1 µg/mL
[2]; AR-0244
  Levofloxacin MIC, +EPI: 2 µg/mL
[2]; AR-0246
  Levofloxacin MIC fold difference, +EPI: 8, (8) fold
  Levofloxacin MIC, +EPI: 8, (8) μg/mL
[2]; AR-0248
  Levofloxacin MIC fold difference, +EPI: 32 fold
  Levofloxacin MIC, +EPI: 0.5 µg/mL
[2]; AR-0249
  Levofloxacin MIC fold difference, +EPI: 32 fold
  Levofloxacin MIC, +EPI: 2 µg/mL
[2]; AR-0252
  Levofloxacin MIC fold difference, +EPI: 64 fold
  Levofloxacin MIC, +EPI: 0.5 µg/mL
[2]; AR-0253
  Levofloxacin MIC fold difference, +EPI: 64 fold
  Levofloxacin MIC, +EPI: 0.031 µg/mL
[2]; AR-0264
  Levofloxacin MIC, +EPI: 1 µg/mL
In vivo
  MTD at 48 h: 30 mg/kg
P. aeruginosa ATCC 27853 [3]; thigh or lung infection models
  Improvement of levofloxacin efficacy in murine thigh or lung infection models: neither TXA01182 nor TXA09155 improved levofloxacin efficacy

## C[C@H]1COc2c(N3CCN(C)CC3)c(F)cc3c(=O)c(C(=O)O)cn1c23 [Levofloxacin, levofloxacin]
P. aeruginosa ATCC 27853 [1]; ATCC 27853 parent strain (Table S1), read-out: MIC
  MIC: 1 µg/mL
[2]; read-out: Levofloxacin MIC, No EPI, AR-0229
  MIC: 64 µg/mL
[2]; read-out: Levofloxacin MIC, No EPI, AR-0232
  MIC: 8 µg/mL
[2]; read-out: Levofloxacin MIC, No EPI, AR-0233
  MIC: 4 µg/mL
[2]; read-out: Levofloxacin MIC, No EPI, AR-0234
  MIC: 8 µg/mL
[2]; read-out: Levofloxacin MIC, No EPI, AR-0239
  MIC: 32 µg/mL
[2]; read-out: Levofloxacin MIC, No EPI, AR-0242
  MIC: 8 µg/mL
[2]; read-out: Levofloxacin MIC, No EPI, AR-0244
  MIC: 64 µg/mL
[2]; read-out: Levofloxacin MIC, No EPI, AR-0246
  MIC: 64 µg/mL
[2]; read-out: Levofloxacin MIC, No EPI, AR-0248
  MIC: 16 µg/mL
[2]; read-out: Levofloxacin MIC, No EPI, AR-0249
  MIC: 64 µg/mL
[2]; read-out: Levofloxacin MIC, No EPI, AR-0252
  MIC: 32 µg/mL
[2]; read-out: Levofloxacin MIC, No EPI, AR-0253
  MIC: 2 µg/mL
[2]; read-out: Levofloxacin MIC, No EPI, AR-0264
  MIC: 64 µg/mL
[4]; read-out: Levofloxacin MIC alone across panel, 20 MRSN isolates
  MIC: ≥ 8 µg/mL
[4]; read-out: Levofloxacin MIC, No EPI, MRSN #994
  MIC: 16 µg/mL
[4]; read-out: Levofloxacin MIC, No EPI, MRSN #1344
  MIC: 8 µg/mL
[4]; read-out: Levofloxacin MIC, No EPI, MRSN #3587
  MIC: 8 µg/mL
[4]; read-out: Levofloxacin MIC, No EPI, MRSN #3705
  MIC: 8 µg/mL
[4]; read-out: Levofloxacin MIC, No EPI, MRSN #5498
  MIC: 32 µg/mL
[4]; read-out: Levofloxacin MIC, No EPI, MRSN #5519
  MIC: 64 µg/mL
[4]; read-out: Levofloxacin MIC, No EPI, MRSN #5539
  MIC: 16 µg/mL
[4]; read-out: Levofloxacin MIC, No EPI, MRSN #6220
  MIC: 128 µg/mL
[4]; read-out: Levofloxacin MIC, No EPI, MRSN #6241
  MIC: 8 µg/mL
[4]; read-out: Levofloxacin MIC, No EPI, MRSN #6678
  MIC: 32 µg/mL
[4]; read-out: Levofloxacin MIC, No EPI, MRSN # 6695
  MIC: 8 µg/mL
[4]; read-out: Levofloxacin MIC, No EPI, MRSN #8130
  MIC: 16 µg/mL
[4]; read-out: Levofloxacin MIC, No EPI, MRSN #8139
  MIC: 8 µg/mL
[4]; read-out: Levofloxacin MIC, No EPI, MRSN #8912
  MIC: 16 µg/mL
[4]; read-out: Levofloxacin MIC, No EPI, MRSN #8914
  MIC: 16 µg/mL
[4]; read-out: Levofloxacin MIC, No EPI, MRSN #8915
  MIC: 128 µg/mL
[4]; read-out: Levofloxacin MIC, No EPI, MRSN #14981
  MIC: 16 µg/mL
[4]; read-out: Levofloxacin MIC, No EPI, MRSN #15566
  MIC: 8 µg/mL
[4]; read-out: Levofloxacin MIC, No EPI, MRSN #16344
  MIC: 8 µg/mL
[4]; read-out: Levofloxacin MIC, No EPI, MRSN #369569
  MIC: 32 µg/mL
[5]
  MIC: 256 µg/mL
[6]; ATCC27853, EPIR32
  MIC: 0.25 µg/mL
[6]; ATCC27853, EPIR38
  MIC: 0.5 µg/mL
[7]; CDC AR-0232, levofloxacin 4× MIC (32 μg/mL) alone
  Frequency of Resistance: 1.68 × 10^−8
[7]; CDC AR-0248, levofloxacin 4× MIC (64 μg/mL) alone
  Frequency of Resistance: 8.64 × 10^−8
[7]; CDC AR-0249, levofloxacin 4× MIC (256 μg/mL) alone
  Frequency of Resistance: 2.15 × 10^−8
P. aeruginosa ATCC 27853 [3]; [8]
  Mean Log10 CFU (thigh): 7.41 log10 CFU
  Mean Log10 CFU Change vs +2 hr Control, Δlog10 (treatment-baseline), thigh: 1.33 log10 CFU
P. aeruginosa ATCC 27853 [3]; levofloxacin 15 mg/kg SC QID, alone or with TXA11114 30 mg/kg IV QID
  Mean Log10 CFU (thigh): 5.97 log10 CFU
P. aeruginosa ATCC 27853 [3]; levofloxacin 20 mg/kg SC QID, alone or with TXA11114 30 mg/kg IV QID
  Mean Log10 CFU (thigh): 4.47 log10 CFU
